In this assay the test system is P. aeruginosa (ATCC 27853). In kind it is cell-based. The conditions noted are these: broth microdilution in MHB, 37 °C, 16–20 h; triplicate, n = 3.

No end group written: not given here.

Turning to LVQRGRFGRFLSRIRRIRPRINFNIKGSI [AMP-17], the “Experimentally measured MIC against P. aeruginosa (ATCC 27853)” value is “above 25 μM”.

For the origin of these results see PMC12125351 (Communications Biology, 2025).
